The results in this text go back to ChEMBL document CHEMBL1201862, “PubChem BioAssay data set” (2004).

Holding throughout (test): DTP human tumour cell line panel, 48 h
Assay [1] relates to UO-31.
Assay [2] has as its system COLO 205.
The subject of assay [3] is HOP-92.
The subject of assay [4] is MDA-MB-231.
For assay [5], the system named is SN12C.
Assay [6] relates to CCRF-CEM.
The test system of assay [7] is SK-OV-3.
Assay [8] concerns NCI/ADR-RES.
The test system of assay [9] is SK-MEL-28.
Assay [10] has as its system SW-620.
Assay [11] relates to MDA-N.
Assay [12] concerns TK-10.
The test system of assay [13] is UACC-62.
Assay [14] deals with MOLT-4.
The test system of assay [15] is OVCAR-8.
Assay [16] relates to ACHN.
The test system of assay [17] is HT-29.
The test system of assay [18] is SNB-75.
For assay [19], the system named is SF-295.
Assay [20] relates to OVCAR-3.

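These data come from cells grown in 96-well plates and exposed to compound for 48 hours at five concentrations. Here, GI50 denotes the concentration required for 50% inhibition of growth.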 Activity calls are given as the source filed them. Rule as the data show it: active = GI50 up to about 1.1 µM and inactive = higher.

By GI50 is commonly meant the concentration that inhibits growth by half.

On to `O=C(O)c1nn(-c2ccc(Cl)cc2)c2c1C(=O)c1ccccc1C2=O`, for which the GI50 in assay [1] was > 100 µM (inactive); in [2], > 100 µM (inactive); in [3], > 100 µM (inactive); in [4] it was 41.3 µM (inactive); in assay [5], > 100 µM (inactive); in assay [6] it was < 0.01 µM (active). Also, the GI50 in assay [7], in assay [8], in assay [9], in assay [10], in assay [11] and in [12] was > 100 µM (inactive) each time. In addition, the GI50 in assay [13] is > 100 µM (inactive); in [14], 22 µM (inactive); in [15], > 100 µM (inactive); in assay [16], > 100 µM (inactive); in assay [17], > 100 µM (inactive); in assay [18], 22.8 µM (inactive). Further, the figures for the GI50 in [19] and in assay [20] were > 100 µM (inactive) and 24.7 µM (inactive), respectively.
`O=C(O)CSSCC(=O)O`: the GI50 in [1], in assay [2], in assay [3], in [4], in assay [5] and in assay [6] was > 100 µM (inactive) each time. Moreover, the GI50 in assay [7], in assay [8], in assay [9], in assay [10], in assay [11] and in assay [12] was > 100 µM (inactive) throughout. Moreover, the GI50 in assay [13], in [14], in [15], in [16], in [17] and in assay [18] was > 100 µM (inactive) each time. Further, the GI50 in assay [19] and in assay [20] was > 100 µM (inactive) in each case.
Regarding `CS(=O)(=O)N1CC(CCl)c2ccc([N+](=O)[O-])cc21` (stereo not given), the GI50 in [1], in assay [2], in assay [3], in assay [4], in assay [5] and in assay [6] was > 100 µM (inactive) in each case. The GI50 in assay [7], in [8], in [9], in [10], in assay [11] and in assay [12] was > 100 µM (inactive) throughout. Besides, the GI50 was > 100 µM (inactive) in assay [13]; > 100 µM (inactive) in [14]; > 100 µM (inactive) in assay [15]; > 100 µM (inactive) in assay [16]; > 100 µM (inactive) in assay [17]; < 0.01 µM (active) in assay [18]. Further, the GI50 in [19] and in assay [20] was > 100 µM (inactive) in each case.
`COc1ccc(/C=N/NC(=O)C2=C(N)N(c3ccccc3)C(=C(C#N)C#N)S2)cc1`: the GI50 was > 100 µM (inactive) in [1]; > 100 µM (inactive) in assay [2]; 39.3 µM (inactive) in assay [3]; 79.6 µM (inactive) in assay [4]; > 100 µM (inactive) in [5]; > 100 µM (inactive) in assay [6]. Also, the GI50 was 57 µM (inactive) in assay [7]; > 100 µM (inactive) in assay [8]; > 100 µM (inactive) in assay [9]; > 100 µM (inactive) in assay [10]; > 100 µM (inactive) in assay [11]; > 100 µM (inactive) in assay [12]. Moreover, the GI50 was > 100 µM (inactive) in [13]; > 100 µM (inactive) in assay [14]; 93.8 µM (inactive) in assay [15]; > 100 µM (inactive) in assay [16]; > 100 µM (inactive) in [17]; 16 µM (inactive) in assay [18]. The values for the GI50 in [19] and in [20] were 45 µM (inactive) and 60.4 µM (inactive), respectively.
Turning to `COC(=O)C(=O)C(C(=O)C(N)=O)c1nc2ccc(C(=O)c3ccccc3)cc2nc1O` (stereo not given), the GI50 in assay [3] is > 100 µM (inactive); in [4] it was > 100 µM (inactive); in assay [5] it was > 100 µM (inactive); in [6] it was > 100 µM (inactive); in assay [7], > 100 µM (inactive); in [8], 40.4 µM (inactive). The GI50 in [9] was > 100 µM (inactive); in assay [10], > 100 µM (inactive); in [11], > 100 µM (inactive); in assay [12], > 100 µM (inactive); in assay [13], > 100 µM (inactive); in [14] it was 54.3 µM (inactive). Besides, the GI50 in assay [15] was 53.8 µM (inactive); in assay [16], 63 µM (inactive); in [17], > 100 µM (inactive); in assay [18] it was 69 µM (inactive); in [19], 79.8 µM (inactive); in assay [20], > 100 µM (inactive).
With `O=C(Cc1ccccc1)NNc1nc(NNC(=O)c2ccncc2)nc(Nc2cccc(Cl)c2)n1`, the GI50 in assay [2], in assay [3], in assay [4], in assay [5], in assay [6] and in [7] was > 10 µM (inactive) throughout. For the same compound, the GI50 in assay [8], in [9], in [10], in assay [11], in [12] and in assay [13] was > 10 µM (inactive) each time. For the same compound, the GI50 in assay [14], in [15], in assay [17] and in [18] was > 10 µM (inactive) throughout.
For the compound `COc1ccc2c(c1)c1c3c(ccc4ncn2c43)N(CCN(C)C)CCN=1`, the 50% growth inhibitory concentration (GI50) in [1] is 0.404 µM (active); in assay [2] it was 0.356 µM (active); in assay [3], 1.49 µM (inactive); in assay [4], 0.476 µM (active); in assay [5], 0.316 µM (active); in [6] it was 0.127 µM (active). Besides, the GI50 in [7] is 0.908 µM (active); in assay [8], 0.438 µM (active); in [9], 0.897 µM (active); in [10], 0.146 µM (active); in assay [11], 0.438 µM (active); in assay [12], 1.49 µM (inactive). Moreover, the GI50 in assay [13] was 1.23 µM (inactive); in [14], 0.043 µM (active); in assay [15] it was 0.284 µM (active); in assay [16], 0.701 µM (active); in assay [17] it was 0.135 µM (active); in assay [18], 0.764 µM (active). Also, the GI50 in assay [19] was 0.494 µM (active); in assay [20], 0.538 µM (active).
For the compound `CCCCn1c2c(n(CCCC)c1=[Se])-c1c(n(CCCC)c(=[Se])n1CCCC)S[Se][Se]S2`, the GI50 in [1] was 14.1 µM (inactive); in assay [2] it was 8.65 µM (inactive); in assay [3] it was 2.01 µM (inactive); in assay [4] it was 14.5 µM (inactive); in assay [5] it was 24.6 µM (inactive); in assay [6], 3.78 µM (inactive). The GI50 in [7] was 24.5 µM (inactive); in [8], 19.5 µM (inactive); in [9], 39.1 µM (inactive); in assay [10], 6.01 µM (inactive); in assay [11], 33.7 µM (inactive); in assay [12], 5.4 µM (inactive). Also, the GI50 in [13] is 17.8 µM (inactive); in assay [14], 12.6 µM (inactive); in [15], 16.9 µM (inactive); in assay [16] it was 12 µM (inactive); in assay [17], 26.5 µM (inactive); in assay [18] it was 20.6 µM (inactive). The results for the GI50 in [19] and in assay [20] were 4.55 µM (inactive) and 6.95 µM (inactive), respectively.
As to `O=C1c2ccccc2-c2nc(-c3cccc([N+](=O)[O-])c3)nnc21`, the GI50 in [1] was 12.3 µM (inactive); in assay [2], 3.91 µM (inactive); in [3], > 100 µM (inactive); in assay [4], 16.6 µM (inactive); in assay [5], 21.4 µM (inactive); in [6], 7.14 µM (inactive). Also, the GI50 in assay [7] is > 100 µM (inactive); in assay [8] it was 13.4 µM (inactive); in assay [10], 15.8 µM (inactive); in assay [11], 2.54 µM (inactive); in assay [12], 18.7 µM (inactive); in [13], 9.12 µM (inactive). Also, the GI50 in assay [14] is 9.73 µM (inactive); in assay [15] it was 11.4 µM (inactive); in assay [16], 3.98 µM (inactive); in assay [17] it was 1.82 µM (inactive); in [18], 21.4 µM (inactive); in assay [19], 1.56 µM (inactive).
As for `C[n+]1c(-c2ccc(/C=N/NC(=O)C(=O)N/N=C/c3ccc(-c4cn5ccccc5[n+]4C)cc3)cc2)cn2ccccc21`, the GI50 in [1], in assay [2], in assay [3], in assay [4], in assay [5] and in [6] was > 100 µM (inactive) throughout. Moreover, the GI50 in assay [7] is > 100 µM (inactive); in assay [8], > 100 µM (inactive); in assay [10], > 100 µM (inactive); in assay [11], > 100 µM (inactive); in assay [12] it was 56.6 µM (inactive); in assay [13], > 100 µM (inactive). In addition, the GI50 in [14] was > 100 µM (inactive); in [15], > 100 µM (inactive); in assay [16] it was > 100 µM (inactive); in assay [17] it was > 100 µM (inactive); in assay [18], > 100 µM (inactive); in assay [20] it was 45.9 µM (inactive).
